Consider 13 molecules from patent US20240415819A1, “MACROCYCLIC COMPOUNDS AS PROTEASOME SUBUNIT BETA TYPE-5 INHIBITORS” (Lead Discovery Center GmbH, priority 2021, published 2024).

The target in experiment [1] is T1, β5 subunit of the human constitutive proteasome (CPS) (Homo sapiens, UniProt P28074).
T1 construct: purchased Boston Biochem E-360
The experiment in a line: β5 inhibition assay, human constitutive proteasome (Suc-LLVY-AMC). The experiment is classed as biochemical. The conditions noted are these: IC50 class, Suc-LLVY-AMC substrate. As for the experimental part:
The enzymatic activity of the β5 subunit of the human constitutive proteasome (CPS) is analyzed. In another assay, which differs from the assay of the human constitutive proteasome only in using the human immunoproteasome (IPS) the enzymatic activity of the β5 subunit of the human immunoproteasome (IPS) is analyzed. […] Inhibition is indicated as IC50 [nM] (“-”=not measured).

Experiment [2] concerns RPMI 8226 (B lymphocyte cell line, multiple myeloma). The experiment in a line: 48 hr CTG viability assay, RPMI 8226. The format is cell-based. The note with it: Homo sapiens, RPMI-8226; 48 hr CTG; read-out: RPMI-8226 IC50. In outline: (§1)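 Growth inhibition by compound over 48 h; IC50 (nM) derived from duplicate CellTiter-Glo luminescence readings across 0.0015–10 uM.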
Experiment [3] relates to A549 (human lung carcinoma cell line). Kind of experiment: Glo assay of A549 cells (Table 3; ProteasomeGlo plating scheme). The conditions noted are these: Homo sapiens; A549 cells; read-out: PGLo A549. The format is cell-based. In outline: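 Compound treatment lasts 105 minutes at 37° C. under 5% CO2. Suc-LLVY-Glo substrate premixed with detection reagent (60 min at room temperature) is then added directly to the cells, and luminescence after 10-15 min in the dark gives the IC50 in nM.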

Experiment [4] has as its system Hs 746T (human gastric carcinoma cell line). The experiment in a line: 48 hr CTG viability assay, Hs 746T. The experiment is classed as cell-based. The note with it: Hs746T, 48 hr CTG, read-out: Hs 746T IC50. A digest of the protocol: as §1
The target of experiment [5] is T2, β5 subunit of the human immunoproteasome (IPS) (Homo sapiens, UniProt P28062).
T2 construct: purchased Boston Biochem E-370
Kind of experiment: β5 inhibition assay, human immunoproteasome (Suc-LLVY-AMC). The experiment is classed as biochemical. The note with it: IC50 class, Suc-LLVY-AMC substrate. In outline:
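Human immunoproteasome (1 nM final) was preincubated 10 min at RT with compound in 100 mM HEPES pH 7.5, 50 mM NaCl, 0.02% SDS, 1 mM DTT. Suc-LLVY-AMC (22.6 μM final) was then added for 4 h at RT in the dark. After stopping with 1 μM bortezomib, AMC fluorescence was read (ex 355/em 460 nm).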

The subject of experiment [6] is MM1 S (B lymphoblast cell line). Kind of experiment: 48 hr CTG viability assay, MM1S. The experiment is classed as cell-based. The conditions noted are these: Homo sapiens, 48 hr CTG, read-out: MM1S IC50. A digest of the protocol: as §1

pIC50: −log10 of the molar value. Some results are limits rather than exact numbers.

Regarding `Cc1ccc2cc1CNC(=O)[C@H](CCc1ccccc1)NC(=O)[C@@H](NC(=O)N1Cc3ccc(N)cc3C1)CC(=O)N1CCCC(CCO2)C1` (stereo partly drawn) [Compound 687, 5-amino-N-((9S,12S)-5^4-methyl-8,11,14-trioxo-9-phenethyl-4-oxa-7,10-diaza-1(3,1)-piperidina-5(1,3)-benzenacyclotetradecaphane-12-yl)isoindoline-2-carboxamide], the pIC50 in experiment [1], in experiment [2], in experiment [3], in experiment [4], in experiment [5] and in experiment [6] was above 7.00 each time.

On to `Cc1ccc2cc1CNC(=O)[C@H](CCc1ccccc1)NC(=O)[C@@H](NC(=O)C1CC3CCC(C1)N3C(=O)OC(C)(C)C)CC(=O)N1CCCC(CCO2)C1` (stereo partly drawn) [Compound 605, tert-butyl 3-(((9S,12S)-5^4-methyl-8,11,14-trioxo-9-phenethyl-4-oxa-7,10-diaza-1(3,1)-piperidina-5(1,3)-benzenacyclotetradecaphane-12-yl)carbamoyl)-8-azabicyclo[3.2.1]octane-8-carboxylate], for which the pIC50 in experiment [1] was above 7.00; in experiment [2], above 7.00; in experiment [3], above 7.00; in experiment [4] it was 6.30 to 7.00; in experiment [5], above 7.00; in experiment [6], above 7.00.

For `Cc1ccc2cc1CNC(=O)[C@H](CCc1ccncc1)NC(=O)[C@@H](NC(=O)C1(F)CCNCC1)CC(=O)N1CCCC(CCO2)C1` (stereo partly drawn) [Compound 729, 4-fluoro-N-((12S)-5^4-methyl-8,11,14-trioxo-9-(2-(pyridin-4-yl)ethyl)-4-oxa-7,10-diaza-1(3,1)-piperidina-5(1,3)-benzenacyclotetradecaphane-12-yl)piperidine-4-carboxamide], the pIC50 is above 7.00 in experiment [1]; 6.30 to 7.00 in experiment [2]; above 7.00 in experiment [3]; 6.30 to 7.00 in experiment [4]; above 7.00 in experiment [5]; 6.30 to 7.00 in experiment [6].

`Cc1ccc2cc1CNC(=O)[C@H](CCc1ccccc1)NC(=O)[C@@H](NC(=O)C(C)(C)C(F)(F)F)CC(=O)N1CCCC(CCO2)C1` (stereo partly drawn) [Compound 646, 3,3,3-trifluoro-2,2-dimethyl-N-((9S,12S)-5^4-methyl-8,11,14-trioxo-9-phenethyl-4-oxa-7,10-diaza-1(3,1)-piperidina-5(1,3)-benzenacyclotetradecaphane-12-yl)propanamide]: the pIC50 in experiment [1], in experiment [2], in experiment [3], in experiment [4], in experiment [5] and in experiment [6] was above 7.00 throughout.

As to `Cc1ccc2cc1CNC(=O)[C@H](CCc1ccccc1)NC(=O)[C@@H](NC(=O)CCNC(=O)c1cccc(OCC(C)C)c1)CC(=O)N1CCCC(CCO2)C1` (stereo partly drawn) [Compound 651, 3-isobutoxy-N-(3-(((9S,12S)-5^4-methyl-8,11,14-trioxo-9-phenethyl-4-oxa-7,10-diaza-1(3,1)-piperidina-5(1,3)-benzenacyclotetradecaphane-12-yl)amino)-3-oxopropyl)benzamide], the pIC50 in experiment [1], in experiment [2], in experiment [3], in experiment [4], in experiment [5] and in experiment [6] was above 7.00 each time.

`Cc1ccc2cc1CNC(=O)[C@H](CCc1ccccc1)NC(=O)[C@@H](NC(=O)CCNCC1CCCC1)CC(=O)N1CCCC(CCO2)C1` (stereo partly drawn) [Compound 677, 3-((cyclopentylmethyl)amino)-N-((9S,12S)-5^4-methyl-8,11,14-trioxo-9-phenethyl-4-oxa-7,10-diaza-1(3,1)-piperidina-5(1,3)-benzenacyclotetradecaphane-12-yl)propanamide]: the pIC50 is above 7.00 in experiment [1]; above 7.00 in experiment [2]; 6.30 to 7.00 in experiment [3]; above 7.00 in experiment [4]; above 7.00 in experiment [5]; above 7.00 in experiment [6].

Take `Cc1ccc2cc1CNC(=O)[C@H](CCc1ccccc1)NC(=O)[C@@H](NC(=O)CCNS(=O)(=O)c1ccc(OCC3CCCCC3)cc1)CC(=O)N1CCCC(CCO2)C1` (stereo partly drawn) [Compound 672, 3-((4-(cyclohexylmethoxy)phenyl)sulfonamido)-N-((9S,12S)-5^4-methyl-8,11,14-trioxo-9-phenethyl-4-oxa-7,10-diaza-1(3,1)-piperidina-5(1,3)-benzenacyclotetradecaphane-12-yl)propanamide]: the pIC50 in experiment [1], in experiment [2], in experiment [3], in experiment [4], in experiment [5] and in experiment [6] was above 7.00 each time.

Turning to `COc1cccc(OCCC(=O)N[C@H]2CC(=O)N3CCCC(CCOc4ccc(C)c(c4)CNC(=O)[C@H](CCc4ccccc4)NC2=O)C3)c1` (stereo partly drawn) [Compound 587, 3-(3-methoxyphenoxy)-N-((9S,12S)-5^4-methyl-8,11,14-trioxo-9-phenethyl-4-oxa-7,10-diaza-1(3,1)-piperidina-5(1,3)-benzenacyclotetradecaphane-12-yl)propanamid], the pIC50 in experiment [1], in experiment [2], in experiment [3], in experiment [4], in experiment [5] and in experiment [6] was above 7.00 throughout.

Regarding `Cc1ccc2cc1CNC(=O)[C@H](CCc1ccccc1)NC(=O)[C@@H](NC(=O)CCO[C@H]1C[C@@H]3CC[C@H]1C3)CC(=O)N1CCCC(CCO2)C1` [Compound 642, 3-(((1S,2S,4R)-bicyclo[2.2.1]heptan-2-yl)oxy)-N-((9S,12S)-5^4-methyl-8,11,14-trioxo-9-phenethyl-4-oxa-7,10-diaza-1(3,1)-piperidina-5(1,3)-benzenacyclotetradecaphane-12-yl)propanamide], the pIC50 in experiment [1], in experiment [2], in experiment [3], in experiment [4], in experiment [5] and in experiment [6] was above 7.00 in each case.

On to `Cc1ccc2cc1CNC(=O)[C@H](CCc1ccccc1)NC(=O)[C@@H](NC(=O)CCNCc1cccc(N3CCOCC3)c1)CC(=O)N1CCCC(CCO2)C1` (stereo partly drawn) [Compound 665, N-((9S,12S)-5^4-methyl-8,11,14-trioxo-9-phenethyl-4-oxa-7,10-diaza-1(3,1)-piperidina-5(1,3)-benzenacyclotetradecaphane-12-yl)-3-((3-morpholinobenzyl)amino)propanamide], for which the pIC50 in experiment [1], in experiment [2], in experiment [3], in experiment [4], in experiment [5] and in experiment [6] was above 7.00 in each case.

For the molecule `Cc1ccc2cc1CNC(=O)[C@H](CCc1ccccc1)NC(=O)[C@@H](NC(=O)Cc1ccccc1)CCOC(=O)N1CCCC(CCO2)C1` (stereo partly drawn) [Compound 624, N-((9S,12S)-5^4-methyl-8,11,16-trioxo-9-phenethyl-4,15-dioxa-7,10-diaza-1(3,1)-piperidina-5(1,3)-benzenacyclohexadecaphane-12-yl)-2-phenylacetamide], the pIC50 in experiment [1], in experiment [2], in experiment [3], in experiment [4], in experiment [5] and in experiment [6] was above 7.00 each time.

In the case of `Cc1ccc2cc1CNC(=O)[C@H](CCc1ccccc1)NC(=O)[C@@H](NC(=O)CCN1CC3(CCC3)C1)CC(=O)N1CCCC(CCO2)C1` (stereo partly drawn) [Compound 659, N-((9S,12S)-5^4-methyl-8,11,14-trioxo-9-phenethyl-4-oxa-7,10-diaza-1(3,1)-piperidina-5(1,3)-benzenacyclotetradecaphane-12-yl)-3-(2-azaspiro[3.3]heptan-2-yl)propanamide], the pIC50 in experiment [1], in experiment [2], in experiment [3], in experiment [4], in experiment [5] and in experiment [6] was above 7.00 in each case.

Turning to `Cc1ccc2cc1CNC(=O)[C@H](CCc1ccccc1)NC(=O)[C@@H](NC(=O)CCOCCC1CCC1)CC(=O)N1CCCC(CCO2)C1` (stereo partly drawn) [Compound 627, 3-(2-cyclobutylethoxy)-N-((9S,12S)-5^4-methyl-8,11,14-trioxo-9-phenethyl-4-oxa-7,10-diaza-1(3,1)-piperidina-5(1,3)-benzenacyclotetradecaphane-12-yl)propanamide], the pIC50 in experiment [1], in experiment [2], in experiment [3], in experiment [4], in experiment [5] and in experiment [6] was above 7.00 throughout.
